Test results as given in patent US8192962B2, “Processes for detecting toxic substances” (Daikin Industries, Ltd., priority 2001, dated 2012).

Test system: Genes belonging to other category
Test: DNA chip mRNA expression in yeast, genes belonging to other category (Table 9)
Type: cell-based, Saccharomyces cerevisiae S288C
Outline: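 Chemical exposure: 2 h, log-phase S. cerevisiae S288C, YPD, 25° C., dose set to inhibit growth without death. Profiling: mRNA labeled by reverse transcription with Cy3- or Cy5-dUTP, hybridized to whole-genome array. Output: fluorescence ratio against untreated culture.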

For Na2As [(1)], the “The level of expressed mRNA in the presence of chemical substance/The level of expressed mRNA in the absence of chemical substance” value (yeast gene YKL008C) was 1.2, the “The level of expressed mRNA in the presence of chemical substance/The level of expressed mRNA in the absence of chemical substance” value (yeast gene YKL013C) was 1.4 and the “The level of expressed mRNA in the presence of chemical substance/The level of expressed mRNA in the absence of chemical substance” value (yeast gene YKL039W) was 0.8. For the same substance, the “The level of expressed mRNA in the presence of chemical substance/The level of expressed mRNA in the absence of chemical substance” value (yeast gene YKL041W) was 1.2, the “The level of expressed mRNA in the presence of chemical substance/The level of expressed mRNA in the absence of chemical substance” value (yeast gene YKL096W) was 1.4 and the “The level of expressed mRNA in the presence of chemical substance/The level of expressed mRNA in the absence of chemical substance” value (yeast gene YKL139W) was 0.9. The “The level of expressed mRNA in the presence of chemical substance/The level of expressed mRNA in the absence of chemical substance” value (yeast gene YKL165C) was 0.5, the “The level of expressed mRNA in the presence of chemical substance/The level of expressed mRNA in the absence of chemical substance” value (yeast gene YKL193C) was 1.3 and the “The level of expressed mRNA in the presence of chemical substance/The level of expressed mRNA in the absence of chemical substance” value (yeast gene YLR120C) was 1.2. For the same substance, the “The level of expressed mRNA in the presence of chemical substance/The level of expressed mRNA in the absence of chemical substance” value (yeast gene YLR136C) was 1.3, the “The level of expressed mRNA in the presence of chemical substance/The level of expressed mRNA in the absence of chemical substance” value (yeast gene YLR178C) was 1.7 and the “The level of expressed mRNA in the presence of chemical substance/The level of expressed mRNA in the absence of chemical substance” value (yeast gene YLR250W) was 1.5. The “The level of expressed mRNA in the presence of chemical substance/The level of expressed mRNA in the absence of chemical substance” value (yeast gene YLR327C) was 5.5, the “The level of expressed mRNA in the presence of chemical substance/The level of expressed mRNA in the absence of chemical substance” value (yeast gene YLR356W) was 1.0 and the “The level of expressed mRNA in the presence of chemical substance/The level of expressed mRNA in the absence of chemical substance” value (yeast gene YLR362W) was 1.1. For the same substance, the “The level of expressed mRNA in the presence of chemical substance/The level of expressed mRNA in the absence of chemical substance” value (yeast gene YLR429W) was 0.7, the “The level of expressed mRNA in the presence of chemical substance/The level of expressed mRNA in the absence of chemical substance” value (yeast gene YMR004W) was 0.9 and the “The level of expressed mRNA in the presence of chemical substance/The level of expressed mRNA in the absence of chemical substance” value (yeast gene YMR094W) was 1.0. The “The level of expressed mRNA in the presence of chemical substance/The level of expressed mRNA in the absence of chemical substance” value (yeast gene YMR104C) was 1.9, the “The level of expressed mRNA in the presence of chemical substance/The level of expressed mRNA in the absence of chemical substance” value (yeast gene YMR219W) was 0.7 and the “The level of expressed mRNA in the presence of chemical substance/The level of expressed mRNA in the absence of chemical substance” value (yeast gene YMR226C) was 1.1. For the same substance, the “The level of expressed mRNA in the presence of chemical substance/The level of expressed mRNA in the absence of chemical substance” value (yeast gene YMR275C) was 0.7, the “The level of expressed mRNA in the presence of chemical substance/The level of expressed mRNA in the absence of chemical substance” value (yeast gene YMR276W) was 0.6 and the “The level of expressed mRNA in the presence of chemical substance/The level of expressed mRNA in the absence of chemical substance” value (yeast gene YNL006W) was 1.1. For the same substance, the “The level of expressed mRNA in the presence of chemical substance/The level of expressed mRNA in the absence of chemical substance” value (yeast gene YNL007C) was 0.7, the “The level of expressed mRNA in the presence of chemical substance/The level of expressed mRNA in the absence of chemical substance” value (yeast gene YNL093W) was 2.1 and the “The level of expressed mRNA in the presence of chemical substance/The level of expressed mRNA in the absence of chemical substance” value (yeast gene YNL333W) was 1.0. The “The level of expressed mRNA in the presence of chemical substance/The level of expressed mRNA in the absence of chemical substance” value (yeast gene YNR010W) was 1.3, the “The level of expressed mRNA in the presence of chemical substance/The level of expressed mRNA in the absence of chemical substance” value (yeast gene YNR069C) was 1.5 and the “The level of expressed mRNA in the presence of chemical substance/The level of expressed mRNA in the absence of chemical substance” value (yeast gene YOL013C) was 0.9. For the same substance, the “The level of expressed mRNA in the presence of chemical substance/The level of expressed mRNA in the absence of chemical substance” value (yeast gene YOL164W) was 0.9, the “The level of expressed mRNA in the presence of chemical substance/The level of expressed mRNA in the absence of chemical substance” value (yeast gene YOR036W) was 1.8 and the “The level of expressed mRNA in the presence of chemical substance/The level of expressed mRNA in the absence of chemical substance” value (yeast gene YOR117W) was 0.8. The “The level of expressed mRNA in the presence of chemical substance/The level of expressed mRNA in the absence of chemical substance” value (yeast gene YOR124C) was 0.6, the “The level of expressed mRNA in the presence of chemical substance/The level of expressed mRNA in the absence of chemical substance” value (yeast gene YOR132W) was 0.9 and the “The level of expressed mRNA in the presence of chemical substance/The level of expressed mRNA in the absence of chemical substance” value (yeast gene YOR157C) was 1.0. For the same substance, the “The level of expressed mRNA in the presence of chemical substance/The level of expressed mRNA in the absence of chemical substance” value (yeast gene YOR181W) was 1.0, the “The level of expressed mRNA in the presence of chemical substance/The level of expressed mRNA in the absence of chemical substance” value (yeast gene YOR185C) was 1.1 and the “The level of expressed mRNA in the presence of chemical substance/The level of expressed mRNA in the absence of chemical substance” value (yeast gene YOR198C) was 1.0. The “The level of expressed mRNA in the presence of chemical substance/The level of expressed mRNA in the absence of chemical substance” value (yeast gene YOR259C) was 0.8, the “The level of expressed mRNA in the presence of chemical substance/The level of expressed mRNA in the absence of chemical substance” value (yeast gene YOR261C) was 1.0 and the “The level of expressed mRNA in the presence of chemical substance/The level of expressed mRNA in the absence of chemical substance” value (yeast gene YOR288C) was 0.9. For the same substance, the “The level of expressed mRNA in the presence of chemical substance/The level of expressed mRNA in the absence of chemical substance” value (yeast gene YOR355W) was 0.7, the “The level of expressed mRNA in the presence of chemical substance/The level of expressed mRNA in the absence of chemical substance” value (yeast gene YOR383C) was 0.9 and the “The level of expressed mRNA in the presence of chemical substance/The level of expressed mRNA in the absence of chemical substance” value (yeast gene YPL089C) was 1.2. For the same substance, the “The level of expressed mRNA in the presence of chemical substance/The level of expressed mRNA in the absence of chemical substance” value (yeast gene YPL109C) was 1.1, the “The level of expressed mRNA in the presence of chemical substance/The level of expressed mRNA in the absence of chemical substance” value (yeast gene YPL149W) was 1.5 and the “The level of expressed mRNA in the presence of chemical substance/The level of expressed mRNA in the absence of chemical substance” value (yeast gene YPL154C) was 0.7. For the same substance, the “The level of expressed mRNA in the presence of chemical substance/The level of expressed mRNA in the absence of chemical substance” value (yeast gene YPR103W) was 0.7 and the “The level of expressed mRNA in the presence of chemical substance/The level of expressed mRNA in the absence of chemical substance” value (yeast gene YPR108W) was 0.8.
